Assay [1] concerns the target B-Raf kinase (SEQ. ID NO: 2) (Homo sapiens (Human), UniProt P15056). The assay is described as follows: Biochemical Assay for B-Raf (1). The conditions noted are these: Table J, assay version (1); read-out: BRAF (1) IC50. Put shortly:
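Continuous PK/LDH-coupled NADH oxidation assay, A340 read for 6 h at 30° C., with 0.13 nM B-Raf, 30.1 nM MEK substrate and 1 mM ATP in Tris pH 7.5, MgCl2, DTT, detergents, 1% DMSO. Rate taken from 4–5 h window; percent inhibition vs no-compound and known-inhibitor controls; four-parameter fit gives IC50.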

Assay [2] has as its target C-Raf kinase (SEQ. ID NO: 3) (Homo sapiens (Human), UniProt P04049, Y340D/Y341D). The assay is described as follows: Biochemical Assay for C-Raf (1). The conditions noted are these: Table J, assay version (1); read-out: CRAF (1) IC50. Put shortly: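 Coupled pyruvate kinase/LDH assay tracking NADH oxidation at 340 nm, with 0.43 nM C-Raf, 30.1 nM MEK and 1 mM ATP in pH 7.5 Tris buffer (15 mM MgCl2, 1% DMSO final). Read continuously for 6 h at 30 °C, rate taken from the 4–5 h window. IC50 from four-parameter fit of percent inhibition.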

The next assay concerns H2405 cells. The assay is described as follows: H2405 Cell Proliferation Assay (1). In kind it is cell-based. The conditions noted are these: Homo sapiens, NCI-H2405. The essentials: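 Viability was read by resazurin reduction (ex 540 nm, em 600 nm; 5-6 h with 40 μL of 440 μM stock) after 67-72 h compound exposure at 37 °C.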
The next assay deals with Miapaca-2 cells. The assay is described as follows: MiaPaca-2 Cell Proliferation Assay (1). It is filed as cell-based. The conditions noted are these: Homo sapiens, MIA PaCa-2, single agent, read-out: MiaPaca2 (1) IC50. The essentials: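 Resazurin was added after compound exposure and incubated 5-6 h, then fluorescence read at 540 nm excitation and 600 nm emission to give IC50.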

Sequence of C-Raf kinase (SEQ. ID NO: 3) (P04049 307-648 Y340D/Y341D): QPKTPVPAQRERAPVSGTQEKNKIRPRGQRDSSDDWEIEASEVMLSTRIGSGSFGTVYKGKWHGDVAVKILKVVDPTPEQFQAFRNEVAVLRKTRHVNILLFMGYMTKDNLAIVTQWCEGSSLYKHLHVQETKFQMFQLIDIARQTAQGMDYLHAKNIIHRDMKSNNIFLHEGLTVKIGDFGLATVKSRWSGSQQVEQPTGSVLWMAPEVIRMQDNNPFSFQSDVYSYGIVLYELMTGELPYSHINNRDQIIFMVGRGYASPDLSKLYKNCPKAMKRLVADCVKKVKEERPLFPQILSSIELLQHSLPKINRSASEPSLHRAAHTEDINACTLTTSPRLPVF
Sequence of B-Raf kinase (SEQ. ID NO: 2) (P15056 416-766): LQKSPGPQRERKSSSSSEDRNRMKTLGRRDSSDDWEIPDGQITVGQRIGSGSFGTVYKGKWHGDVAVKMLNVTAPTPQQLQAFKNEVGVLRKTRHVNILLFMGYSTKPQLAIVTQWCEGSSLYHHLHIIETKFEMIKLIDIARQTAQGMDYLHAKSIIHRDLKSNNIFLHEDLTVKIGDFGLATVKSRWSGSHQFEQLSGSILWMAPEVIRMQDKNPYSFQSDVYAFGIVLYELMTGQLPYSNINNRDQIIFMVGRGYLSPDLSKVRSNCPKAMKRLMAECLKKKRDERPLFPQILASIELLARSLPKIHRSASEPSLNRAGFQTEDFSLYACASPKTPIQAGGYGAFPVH

As for `COC(C)(C)c1cc(C(=O)Nc2ccc(C)c(-c3cc(-c4ccnc(NC(=O)C5CC5)c4)cnn3)c2)ccn1` [Example 319], the concentration for half-maximal inhibition (IC50) (in assay [1]; in assay [2]; in the assay on H2405 cells) was at most 100 nM in each case.
With `COC(=O)Nc1cc(-c2cc(-c3cc(NC(=O)c4ccnc(C(C)(C)F)c4)c(F)cc3C)ccn2)ccn1` [Example 302], the IC50 (commonly the midpoint of a concentration-inhibition curve) in assay [1] is at most 100 nM; in assay [2], at most 100 nM; in the assay on H2405 cells, 100 to 500 nM.
Regarding `COC(=O)Nc1cc(-c2cc(-c3cc(NC(=O)c4ccnc(C(C)(C)F)c4)cnc3C)ccn2)ccn1` [Example 323], the IC50 in assay [1] was at most 100 nM; in assay [2], at most 100 nM; in the assay with H2405 cells it was 100 to 500 nM.
As to `Cc1ccc(NC(=O)C2CCOC(C(C)C)C2)cc1-c1cc(-c2ccnc(NC(=O)C3CC3)c2)cnn1` (centres unmarked) [Example 370], the values for the IC50 (in assay [1]; in assay [2]; with H2405 cells) were at most 100 nM, at most 100 nM and 500 to 1000 nM, respectively.
As for `Cc1ccc(NC(=O)c2ccnc(C3CC3)c2)cc1-c1cc(-c2ccnc(NC(=O)C3CC3)c2)cnn1` [Example 331], the figures for the IC50 (in assay [1]; in assay [2]; in the assay on H2405 cells) were at most 100 nM, at most 100 nM and 100 to 500 nM, respectively.
For `CNC(=O)c1cc(-c2cnnc(-c3cc(NC(=O)CCC(C)(C)C#N)cnc3C)c2)ccn1` [Example 333], the IC50 (in assay [1]; in assay [2]; in the assay with H2405 cells) was 1000 to 10000 nM each time.
For `COC(=O)Nc1cc(-c2cnnc(-c3cc(NC(=O)c4ccnc(C(F)F)c4)cnc3C)c2)ccn1` [Example 363], the IC50 fell in the range of 500 to 1000 nM in assay [1], 100 to 500 nM in assay [2] and 1000 to 10000 nM in the assay on H2405 cells.
On to `Cc1ccc(NC(=O)C2CN(C)CCO2)cc1-c1cccc(-c2cc(NC(=O)C3CC3)ncn2)c1` (centres unmarked) [Example 346], for which the 50% inhibitory concentration (IC50) was at most 100 nM in assay [1], at most 100 nM in assay [2] and 1000 to 10000 nM in the assay on H2405 cells.
Take `COC(=O)Nc1cc(-c2cnnc(-c3cc(NC(=O)c4ccnc(C(C)(C)F)c4)cnc3C)c2)ccn1` [Example 361]: the 50% inhibitory concentration (IC50) is 100 to 500 nM in assay [1], at most 100 nM in assay [2] and 500 to 1000 nM with H2405 cells.
Turning to `CNC(=O)c1cc(-c2cc(-c3cc(NC(=O)c4ccnc(C(C)(C)F)c4)ccc3C)cnc2C)ccn1` [Example 371], the concentration for half-maximal inhibition (IC50) (in assay [1]; in assay [2]; in the assay with H2405 cells) was 100 to 500 nM throughout.
On to `CNC(=O)c1cc(-c2cnnc(-c3cc(NC(=O)c4ccc(F)c(C(F)(F)F)c4)ccc3C)c2)ccn1` [Example 329], for which the IC50 in assay [1] is 500 to 1000 nM; in assay [2], at most 100 nM; in the assay on H2405 cells, 500 to 1000 nM.
For `CNC(=O)c1cc(-c2cnnc(-c3cc(NC(=O)c4ccnc(C5CC5)c4)cnc3C)c2)ccn1` [Example 317], the half-maximal inhibitory concentration (IC50) in assay [1] fell in the range of 500 to 1000 nM; in assay [2] it was 100 to 500 nM; in the assay with H2405 cells it was 1000 to 10000 nM.
On to `CNC(=O)c1cc(-c2cnnc(-c3cc(NC(=O)c4ccnc(C(C)(C)F)c4)ccc3C)c2)ccn1` [Example 325], for which the IC50 (in assay [1]; in assay [2]; with H2405 cells) was 100 to 500 nM throughout.
Consider `CNC(=O)c1cc(-c2nccc(-c3cc(NC(=O)c4ccnc(C(F)(F)F)c4)ccc3C)n2)ccn1` [Example 25], for which the IC50 is at most 100 nM in assay [1], at most 100 nM in assay [2] and 1000 to 10000 nM in the assay with Miapaca-2 cells.
`CC(=O)Nc1cc(-c2cc(-c3cc(NC(=O)c4ccnc(C(F)(F)F)c4)ccc3C)cn(C)c2=O)ccn1` [Example 21, N-(3-(2′-acetamido-1-methyl-2-oxo-1,2-dihydro-[3,4′-bipyridin]-5-yl)-4-methylphenyl)-2-(trifluoromethyl)isonicotinamide]: the concentration for half-maximal inhibition (IC50) in assay [1] is at most 100 nM; in assay [2], at most 100 nM; with Miapaca-2 cells, 1000 to 10000 nM.
With `Cc1ccc(NC(=O)c2cc(C(C)(C)C)no2)cc1-c1cc(-c2ccnc(NC(=O)C3CC3)c2)cnn1` [Example 367], the IC50 in assay [1] is at most 100 nM; in assay [2] it was at most 100 nM; in the assay with H2405 cells, 100 to 500 nM.
In the case of `CNC(=O)c1cc(-c2cc(-c3cc(C(=O)Nc4ccnc(C(F)(F)F)c4)ccc3C)ccn2)ccn1` [Example 31], the IC50 in assay [1] was 100 to 500 nM; in assay [2], at most 100 nM; in the assay with Miapaca-2 cells, 1000 to 10000 nM.
With `CO[C@H]1CC[C@H](C(=O)Nc2cnc(C)c(-c3cccc(-c4cc(NC(=O)C5CC5)ncn4)c3)c2)CC1` [Example 347], the IC50 in assay [1] was 500 to 1000 nM; in assay [2], 100 to 500 nM; in the assay on H2405 cells it was 1000 to 10000 nM.
For `Cc1ccc(NC(=O)c2ccnc(C(C)(C)F)c2)cc1-c1cc(-c2ccnc(NC(=O)C3CC3)c2)cnn1` [Example 315], the IC50 (in assay [1]; in assay [2]; in the assay on H2405 cells) was at most 100 nM throughout.
On to `COCCNC(=O)c1cc(-c2cnnc(-c3cc(NC(=O)c4cccc(C5CC5)c4)ccc3C)c2)ccn1` [Example 365], for which the IC50 in assay [1] is 100 to 500 nM; in assay [2], 100 to 500 nM; in the assay on H2405 cells, 1000 to 10000 nM.
As for `Cc1ccc(NC(=O)c2ccnc(C(C)(C)C#N)c2)cc1-c1cc(-c2ccnc(C(=O)NC3CC3)c2)cnn1` [Example 372], the values for the IC50 (in assay [1]; in assay [2]; with H2405 cells) were 1000 to 10000 nM, 500 to 1000 nM and 1000 to 10000 nM, respectively.
As to `Cc1ccc(NC(=O)c2cnn(C(C)(C)C)c2)cc1-c1cc(-c2ccnc(NC(=O)C3CC3)c2)cnn1` [Example 321], the IC50 in assay [1] is at most 100 nM; in assay [2], at most 100 nM; in the assay on H2405 cells, 100 to 500 nM.
With `COC(=O)Nc1cc(-c2cnnc(-c3cc(NC(=O)c4cccc(C(C)(C)C#N)c4)ccc3C)c2)ccn1` [Example 311], the IC50 was at most 100 nM in assay [1], at most 100 nM in assay [2] and 100 to 500 nM in the assay on H2405 cells.
Take `CNC(=O)c1cc(-c2cnnc(-c3cc(NC(=O)c4ccnc(C(C)(C)C#N)c4)ccc3C)c2)ccn1` [Example 314]: the concentration for half-maximal inhibition (IC50) in assay [1] was in the range of 100 to 500 nM; in assay [2] it was 100 to 500 nM; in the assay on H2405 cells, 500 to 1000 nM.
On to `COC(=O)Nc1cc(-c2cnnc(-c3cc(NC(=O)CC4CCCC4)cnc3C)c2)ccn1` [Example 368], for which the IC50 (in assay [1]; in assay [2]; in the assay with H2405 cells) was 1000 to 10000 nM throughout.
On to `COC(=O)Nc1cc(-c2cnnc(-c3cc(NC(=O)COCC4CC4)ccc3C)c2)ccn1` [Example 360], for which the concentration for half-maximal inhibition (IC50) in assay [1] lay within 500 to 1000 nM; in assay [2], 100 to 500 nM; in the assay on H2405 cells it was 1000 to 10000 nM.
Turning to `CNC(=O)c1cc(-c2cnnc(-c3cc(NC(=O)c4ccnc(C(F)F)c4)ccc3C)c2)ccn1` [Example 327], the IC50 is 100 to 500 nM in assay [1], at most 100 nM in assay [2] and 1000 to 10000 nM in the assay on H2405 cells.
The matching figures for `Cc1ccc(NC(=O)c2ccnc(S(C)(=O)=O)c2)cc1-c1cc(-c2ccnc(NC(=O)C3CC3)c2)cnn1` [Example 332]: at most 100 nM, at most 100 nM and 1000 to 10000 nM.
With `CNC(=O)c1cc(-c2cnnc(-c3cc(NC(=O)c4ccnc(C(F)(F)F)c4)cnc3C)c2)ccn1` [Example 318], the concentration for half-maximal inhibition (IC50) is 500 to 1000 nM in assay [1], 100 to 500 nM in assay [2] and 1000 to 10000 nM in the assay on H2405 cells.
For `CNC(=O)c1cc(-c2cnnc(-c3cc(NC(=O)c4ccnc(C(C)(C)OC)c4)ccc3C)c2)ccn1` [Example 328], in that order: 500 to 1000 nM, 100 to 500 nM and 100 to 500 nM.
Consider `Cc1ncc(NC(=O)c2cnnc(C3CC3)c2)cc1-c1nccc(-c2ccnc(NC(=O)C3CC3)c2)n1` [Example 294], for which the IC50 is at most 100 nM in assay [1], at most 100 nM in assay [2] and 100 to 500 nM with H2405 cells.
For `CC(=O)Nc1cc(-c2cccc(-c3cc(NC(=O)c4ccnc(C(F)(F)F)c4)ccc3C)c2)ccn1` [Example 28], the results for the concentration for half-maximal inhibition (IC50) (in assay [1]; in assay [2]; in the assay on Miapaca-2 cells) were at most 100 nM, at most 100 nM and 1000 to 10000 nM, respectively.
Regarding `CNC(=O)c1cc(-c2cnnc(-c3cc(NC(=O)c4ccnc(C(F)(F)F)c4)ccc3C)c2)ccn1` [Example 364], the IC50 in assay [1] is 100 to 500 nM; in assay [2], 100 to 500 nM; in the assay on H2405 cells, 500 to 1000 nM.
Turning to `CC(=O)Nc1cc(-c2cc(-c3cc(C(=O)Nc4ccnc(C(F)(F)F)c4)ccc3C)ccn2)ccn1` [Example 26], the values for the half-inhibitory concentration (IC50) (in assay [1]; in assay [2]; with Miapaca-2 cells) were at most 100 nM, at most 100 nM and 1000 to 10000 nM, respectively.
Turning to `COC(=O)Nc1cc(-c2cc(-c3cc(NC(=O)c4ccnc(C(F)F)c4)cnc3C)ccn2)ccn1` [Example 313], the 50% inhibitory concentration (IC50) in assay [1] is at most 100 nM; in assay [2] it was at most 100 nM; in the assay with H2405 cells it was 100 to 500 nM.
Regarding `Cc1ccc(NC(=O)c2ccnc(C(C)(C)C#N)c2)cc1-c1nccc(-c2ccnc3c2CC(=O)N3)n1` [Example 22], the IC50 was at most 100 nM in assay [1], at most 100 nM in assay [2] and 1000 to 10000 nM in the assay with Miapaca-2 cells.
With `CC(=O)Nc1cc(-c2nccc(-c3cc(NC(=O)c4ccnc(C(F)(F)F)c4)ccc3C)n2)ccn1` [Example 24], the figures for the concentration for half-maximal inhibition (IC50) (in assay [1]; in assay [2]; with Miapaca-2 cells) were at most 100 nM, at most 100 nM and 1000 to 10000 nM, respectively.
For the compound `CO[C@H]1CC[C@H](C(=O)Nc2ccc(C)c(-c3ccnc(-c4ccnc(NC(=O)C5CC5)c4)n3)c2)CC1` [Example 341], the concentration for half-maximal inhibition (IC50) in assay [1] was 100 to 500 nM; in assay [2], at most 100 nM.

The values are drawn from patent US12319655B2, “RAF kinase inhibitors and methods of use thereof” (Deciphera Pharmaceuticals, LLC, priority 2021, dated 2025).
